Numbered stars: 1 amine (or outer) side, 2 acyl side, 3 side chain; on linkers, the order of the positions; unused ones are H or OH. Bridge positions count the residues as written; N and C are the ends. Square brackets hold non-standard residues; d marks the D form. Side chains are listed from the residue outwards. Peptide text beside a SMILES is read from it. * marks the point of attachment. C20 diacid = O=C(O)CCCCCCCCCCCCCCCCCCC(=O)*; γGlu = O=C(O)[C@H](CCC(=O)[*:2])N[*:1]; Hyp = O=C(O)[C@@H]1C[C@@H](O)CN1; Trx = NC[C@H]1CC[C@H](C(=O)O)CC1; AEEA = NCCOCCOCC(=O)O
Experiments:
hAMY3 receptor = target: T1, hAMY3 receptor (Homo sapiens, UniProt O60896+P30988); experiment: cAMP assay for in vitro receptor activation, hAMY3-R; type: cell-based; details: cAMP assay, hAMY3 receptor; read-out: hAMY3R EC50
T1 sequence (P30988 25-474): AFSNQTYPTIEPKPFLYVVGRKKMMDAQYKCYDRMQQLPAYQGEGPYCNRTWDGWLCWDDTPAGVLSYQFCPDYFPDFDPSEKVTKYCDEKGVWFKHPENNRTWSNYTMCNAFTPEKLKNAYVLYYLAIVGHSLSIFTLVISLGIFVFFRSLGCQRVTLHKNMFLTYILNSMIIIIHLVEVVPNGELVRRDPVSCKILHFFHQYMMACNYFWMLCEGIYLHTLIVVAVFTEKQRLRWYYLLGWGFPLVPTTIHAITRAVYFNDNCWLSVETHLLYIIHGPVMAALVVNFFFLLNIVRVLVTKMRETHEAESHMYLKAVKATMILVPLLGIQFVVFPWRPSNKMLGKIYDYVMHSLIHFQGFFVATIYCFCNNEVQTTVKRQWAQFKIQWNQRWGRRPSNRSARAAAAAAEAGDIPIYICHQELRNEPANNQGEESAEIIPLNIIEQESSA
T1 sequence (O60896 24-148 partner): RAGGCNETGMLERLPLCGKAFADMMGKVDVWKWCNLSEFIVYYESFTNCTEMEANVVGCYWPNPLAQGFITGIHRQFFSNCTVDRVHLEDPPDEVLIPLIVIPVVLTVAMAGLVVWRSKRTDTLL
Method in brief: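 Read-out is TR-FRET cAMP signal, recorded one hour after reagent addition, following 30 min room-temperature stimulation of stable hAMY3 cells with graded compound doses in casein/IBMX (0.5 mM) buffer.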

hAM1 receptor = hAM1 receptor (Homo sapiens, UniProt O60895+Q16602); experiment: cAMP assay for in vitro receptor activation, hAM1-R; type: cell-based; details: cAMP assay, hAM1 receptor; read-out: hAM1R EC50
Chain of hAM1 receptor (Q16602 23-461): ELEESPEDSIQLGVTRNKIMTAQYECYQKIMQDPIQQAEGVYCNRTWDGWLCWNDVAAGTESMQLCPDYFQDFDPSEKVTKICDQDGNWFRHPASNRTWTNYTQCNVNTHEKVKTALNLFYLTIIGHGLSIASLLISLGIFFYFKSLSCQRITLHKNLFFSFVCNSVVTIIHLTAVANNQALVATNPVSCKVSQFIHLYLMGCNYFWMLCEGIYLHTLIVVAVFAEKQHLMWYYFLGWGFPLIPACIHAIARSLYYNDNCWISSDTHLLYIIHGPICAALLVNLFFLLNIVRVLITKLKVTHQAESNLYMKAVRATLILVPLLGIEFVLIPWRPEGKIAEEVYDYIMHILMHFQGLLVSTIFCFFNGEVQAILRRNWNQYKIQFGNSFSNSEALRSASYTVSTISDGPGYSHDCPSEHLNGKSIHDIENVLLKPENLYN
Chain of hAM1 receptor (O60895 43-175 partner): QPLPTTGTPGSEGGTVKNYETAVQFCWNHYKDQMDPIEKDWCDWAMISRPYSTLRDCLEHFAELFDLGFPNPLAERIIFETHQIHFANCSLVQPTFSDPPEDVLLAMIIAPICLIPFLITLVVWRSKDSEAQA
Method in brief: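 A subcloned monoclonal line stably expressing hAM1 receptor is thawed and plated at 8000 cells/well. The assay buffer is DPBS with 0.05% casein and 0.5 mM IBMX, and receptor activation is followed by cAMP levels.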

SMILES | EC50 (hAMY3 receptor) [nM] | EC50 (hAM1 receptor) [nM]
CC[C@H](C)[C@H](NC(=O)[C@H](CCC(N)=O)NC(=O)[C@H](CCCCNC(=O)COCCOCCNC(=O)COCCOCCNC(=O)CC[C@H](NC(=O)CCCCCCCCCCCCCCCCCCC(=O)O)C(=O)O)NC(=O)[C@H](C)NC(=O)[C@H](CC(C)C)NC(=O)[C@H](CCCNC(=N)N)NC(=O)[C@H](CCC(N)=O)NC(=O)[C@@H](NC(=O)[C@@H](NC(=O)[C@@H]1CSSC[C@H](NC(=O)[C@@H](N)CCCCN)C(=O)N[C@@H](CC(N)=O)C(=O)N[C@@H]([C@@H](C)O)C(=O)N[C@@H](C)C(=O)N[C@@H]([C@@H](C)O)C(=O)N1)[C@@H](C)O)C(C)C)C(=O)N[C@@H](Cc1ccc(O)cc1)C(=O)N[C@@H](CCC(N)=O)C(=O)N[C@@H](Cc1ccccc1)C(=O)N[C@H](C(=O)N[C@@H](CC(=O)O)C(=O)N[C@@H](CCCCN)C(=O)N[C@@H](CC(=O)O)C(=O)N[C@@H](CCCCN)C(=O)N[C@@H](CC(=O)O)C(=O)N[C@@H](CC(N)=O)C(=O)N[C@H](C(=O)N[C@@H](C)C(=O)N1CCC[C@H]1C(=O)N1CCC[C@H]1C(=O)N[C@H](C(=O)N[C@@H](CC(N)=O)C(=O)N[C@H](C(=O)NCC(=O)N[C@@H](CO)C(=O)N[C@@H](CC(N)=O)C(=O)NCC(=O)N1C[C@H](O)C[C@H]1C(N)=O)C(C)C)[C@@H](C)O)C(C)C)[C@@H](C)O [compound 74] (H-KCNTATCTVQRLAK([AEEA-AEEA-γGlu-C20 diacid])QIYQFTDKDKDNVAPPTNVGSNG[Hyp]-NH2; disulfide 2-7; N-terminus assumed) | 0.013 | > 5000
CC[C@H](C)[C@H](NC(=O)[C@H](CCC(N)=O)NC(=O)[C@H](CCC(=O)O)NC(=O)[C@H](C)NC(=O)[C@H](CC(C)C)NC(=O)[C@H](CCCNC(=N)N)NC(=O)[C@H](CCC(N)=O)NC(=O)[C@@H](NC(=O)[C@@H](NC(=O)[C@@H]1CSSC[C@H](NC(=O)[C@H](CCCCN)NC(=O)CC[C@H](NC(=O)CCCCCCCCCCCCCCCCCCC(=O)O)C(=O)O)C(=O)N[C@@H](CC(N)=O)C(=O)N[C@@H]([C@@H](C)O)C(=O)N[C@@H](C)C(=O)N[C@@H]([C@@H](C)O)C(=O)N1)[C@@H](C)O)C(C)C)C(=O)N[C@@H](Cc1ccc(O)cc1)C(=O)N[C@@H](CCC(N)=O)C(=O)N[C@@H](Cc1ccccc1)C(=O)N[C@H](C(=O)N[C@@H](CC(=O)O)C(=O)N[C@@H](CCCCN)C(=O)N[C@@H](CC(=O)O)C(=O)N[C@@H](CCCCN)C(=O)N[C@@H](CC(=O)O)C(=O)N[C@@H](CC(N)=O)C(=O)N[C@H](C(=O)N[C@@H](C)C(=O)N1CCC[C@H]1C(=O)N1CCC[C@H]1C(=O)N[C@H](C(=O)N[C@@H](CC(N)=O)C(=O)N[C@H](C(=O)NCC(=O)N[C@@H](CO)C(=O)N[C@@H](CC(N)=O)C(=O)NCC(=O)N1C[C@H](O)C[C@H]1C(N)=O)C(C)C)[C@@H](C)O)C(C)C)[C@@H](C)O [compound 51] ({C20 diacid-γGlu}-KCNTATCTVQRLAEQIYQFTDKDKDNVAPPTNVGSNG[Hyp]-NH2; disulfide 2-7) | 0.011 | > 5000
CC[C@H](C)[C@H](NC(=O)[C@H](CCC(N)=O)NC(=O)[C@H](Cc1c[nH]cn1)NC(=O)[C@H](C)NC(=O)[C@H](CC(C)C)NC(=O)[C@H](CCCNC(=N)N)NC(=O)[C@H](C)NC(=O)[C@@H](NC(=O)[C@@H](NC(=O)[C@@H]1CSSC[C@H](NC(=O)[C@H](CCCCN)NC(=O)CC[C@H](NC(=O)CCCCCCCCCCCCCCCCCCC(=O)O)C(=O)O)C(=O)N[C@@H](CC(N)=O)C(=O)N[C@@H]([C@@H](C)O)C(=O)N[C@@H](C)C(=O)N[C@@H]([C@@H](C)O)C(=O)N1)[C@@H](C)O)C(C)C)C(=O)N[C@@H](CC(N)=O)C(=O)N[C@@H](CCC(N)=O)C(=O)N[C@@H](Cc1ccccc1)C(=O)N[C@H](C(=O)N[C@@H](CC(=O)O)C(=O)N[C@@H](CCCCN)C(=O)N[C@@H](CC(=O)O)C(=O)N[C@@H](CCCCN)C(=O)N[C@@H](CC(=O)O)C(=O)N1CCC[C@H]1C(=O)N[C@H](C(=O)N[C@@H](C)C(=O)N1CCC[C@H]1C(=O)N1CCC[C@H]1C(=O)N[C@H](C(=O)N[C@@H](CC(N)=O)C(=O)N[C@H](C(=O)NCC(=O)N[C@@H](CO)C(=O)N[C@@H](CC(N)=O)C(=O)NCC(=O)N1C[C@H](O)C[C@H]1C(N)=O)C(C)C)[C@@H](C)O)C(C)C)[C@@H](C)O [compound 137] ({C20 diacid-γGlu}-KCNTATCTVARLAHQINQFTDKDKDPVAPPTNVGSNG[Hyp]-NH2; disulfide 2-7) | 0.034 | > 5000

Other lines, results leading:

EC50 (hAMY3 receptor) [nM] | EC50 (hAM1 receptor) [nM] | SMILES
0.016 | > 5000 | CC[C@H](C)[C@H](NC(=O)[C@H](CCC(N)=O)NC(=O)[C@H](Cc1c[nH]cn1)NC(=O)[C@H](C)NC(=O)[C@H](CC(C)C)NC(=O)[C@H](CCCNC(=N)N)NC(=O)[C@H](CCC(N)=O)NC(=O)[C@@H](NC(=O)[C@@H](NC(=O)[C@@H]1CSSC[C@H](NC(=O)[C@H](CCCCN)NC(=O)CC[C@H](NC(=O)CCCCCCCCCCCCCCCCCCC(=O)O)C(=O)O)C(=O)N[C@@H](CC(N)=O)C(=O)N[C@@H]([C@@H](C)O)C(=O)N[C@@H](C)C(=O)N[C@@H]([C@@H](C)O)C(=O)N1)[C@@H](C)O)C(C)C)C(=O)N[C@@H](C)C(=O)N[C@@H](CCC(N)=O)C(=O)N[C@@H](Cc1ccccc1)C(=O)N[C@@H](Cc1ccc(O)cc1)C(=O)N[C@@H](CC(=O)O)C(=O)N[C@@H](CCCCN)C(=O)N[C@@H](CC(=O)O)C(=O)N[C@@H](CCCCN)C(=O)N[C@@H](CC(=O)O)C(=O)N[C@@H](CC(N)=O)C(=O)N[C@H](C(=O)N[C@@H](C)C(=O)N1CCC[C@H]1C(=O)N1CCC[C@H]1C(=O)N[C@H](C(=O)N[C@@H](CC(N)=O)C(=O)N[C@H](C(=O)NCC(=O)N[C@@H](CO)C(=O)N[C@@H](CC(N)=O)C(=O)NCC(=O)N1C[C@H](O)C[C@H]1C(N)=O)C(C)C)[C@@H](C)O)C(C)C [compound 94] ({C20 diacid-γGlu}-KCNTATCTVQRLAHQIAQFYDKDKDNVAPPTNVGSNG[Hyp]-NH2; disulfide 2-7)
0.006 | > 5000 | CC[C@H](C)[C@H](NC(=O)[C@H](CCC(N)=O)NC(=O)[C@H](CC(=O)O)NC(=O)[C@H](C)NC(=O)[C@H](CC(C)C)NC(=O)[C@H](CCCNC(=N)N)NC(=O)[C@H](CCC(N)=O)NC(=O)[C@@H](NC(=O)[C@@H](NC(=O)[C@@H]1CSSC[C@H](NC(=O)[C@H](CCCCN)NC(=O)CC[C@H](NC(=O)CCCCCCCCCCCCCCCCCCC(=O)O)C(=O)O)C(=O)N[C@@H](CC(N)=O)C(=O)N[C@@H]([C@@H](C)O)C(=O)N[C@@H](C)C(=O)N[C@@H]([C@@H](C)O)C(=O)N1)[C@@H](C)O)C(C)C)C(=O)N[C@@H](Cc1ccc(O)cc1)C(=O)N[C@@H](CCC(N)=O)C(=O)N[C@@H](Cc1ccccc1)C(=O)N[C@H](C(=O)N[C@@H](CC(=O)O)C(=O)N[C@@H](CCCCN)C(=O)N[C@@H](CC(=O)O)C(=O)N[C@@H](CCCCN)C(=O)N[C@@H](CC(=O)O)C(=O)N[C@@H](CC(N)=O)C(=O)N[C@H](C(=O)N[C@@H](C)C(=O)N1CCC[C@H]1C(=O)N1CCC[C@H]1C(=O)N[C@H](C(=O)N[C@@H](CC(N)=O)C(=O)N[C@H](C(=O)NCC(=O)N[C@@H](CO)C(=O)N[C@@H](CC(N)=O)C(=O)NCC(=O)N1C[C@H](O)C[C@H]1C(N)=O)C(C)C)[C@@H](C)O)C(C)C)[C@@H](C)O [compound 5] ({C20 diacid-γGlu}-KCNTATCTVQRLADQIYQFTDKDKDNVAPPTNVGSNG[Hyp]-NH2; disulfide 2-7)
0.027 | > 5000 | CC[C@H](C)[C@H](NC(=O)[C@H](CCC(N)=O)NC(=O)[C@H](CCC(=O)O)NC(=O)[C@H](C)NC(=O)[C@H](CC(C)C)NC(=O)[C@H](CCCNC(=N)N)NC(=O)[C@H](CCC(N)=O)NC(=O)[C@@H](NC(=O)[C@@H](NC(=O)[C@@H]1CSSC[C@H](NC(=O)[C@H](CCCCN)NC(=O)COCCOCCNC(=O)COCCOCCNC(=O)CC[C@H](NC(=O)[C@H]2CC[C@H](CNC(=O)CCCCCCCCCCCCCCCCCCC(=O)O)CC2)C(=O)O)C(=O)N[C@@H](CC(N)=O)C(=O)N[C@@H]([C@@H](C)O)C(=O)N[C@@H](C)C(=O)N[C@@H]([C@@H](C)O)C(=O)N1)[C@@H](C)O)C(C)C)C(=O)N[C@@H](Cc1ccc(O)cc1)C(=O)N[C@@H](CCC(N)=O)C(=O)N[C@@H](Cc1ccccc1)C(=O)N[C@H](C(=O)N[C@@H](CC(=O)O)C(=O)N[C@@H](CCCCN)C(=O)N[C@@H](CC(=O)O)C(=O)N[C@@H](CCCCN)C(=O)N[C@@H](CC(=O)O)C(=O)N[C@@H](CC(N)=O)C(=O)N[C@H](C(=O)N[C@@H](C)C(=O)N1CCC[C@H]1C(=O)N1CCC[C@H]1C(=O)N[C@H](C(=O)N[C@@H](CC(N)=O)C(=O)N[C@H](C(=O)NCC(=O)N[C@@H](CO)C(=O)N[C@@H](CC(N)=O)C(=O)NCC(=O)N1C[C@H](O)C[C@H]1C(N)=O)C(C)C)[C@@H](C)O)C(C)C)[C@@H](C)O [compound 126] ({C20 diacid-Trx-γGlu-AEEA-AEEA}-KCNTATCTVQRLAEQIYQFTDKDKDNVAPPTNVGSNG[Hyp]-NH2; disulfide 2-7)

— US12139520B2 (priority 2020, dated 2024)
